Laboratory results published in EP3929184A1, “((((3-HALOPHENYL)(PHENYL)METHYL)SULFINYL)METHYL)THIOPHENE COMPOUNDS AND DIASTEREOMERIC FORMS THEREOF FOR USE IN IMPROVING COGNITIVE FUNCTIONS” (Red Bull GmbH, priority 2020, dated 2021).

Assays:
presynaptic cells = test: Dopamine release from presynaptic cells; type: cell-based; conditions: different from compounds such as Amphetamines
young rats = test: Reversal of scopolamine effect in young rats; type: in vivo

SMILES: [O-][S+](Cc1cccs1)C(c1ccccc1)c1cccc(Br)c1 [2-2, 2-(((((R),(R)-3-bromophenyl)(phenyl)methyl)sulfinyl)methyl)thiophene]
- release of dopamin from presynaptic cells (presynaptic cells): does not induce release
- effect of compounds such as scopolamine (young rats): reversed
